The results in this text go back to patent US12233060B2, “Inhibitors of Ataxia-Telangiectasia Mutated and Rad3-related protein kinase (ATR) for use in methods of treating cancer” (THE INSTITUTE OF CANCER RESEARCH: ROYAL CANCER HOSPITAL, priority 2016, dated 2025).

The test system of experiment [1] is TOV21G (ARID1A mutant) and RMG1 (ARID1A wildtype) cells. In words: Five-day dose response in OCCC cell lines TOV21G and RMG1. The format is cell-based, human. Conditions: 5 days exposure. The protocol:
FIG. 3. In vivo ARID1A/ATR synthetic lethality. A. Schematic of VX-970 therapy experiment in mice bearing established HCT116 ARID1A^+/+ and ARID1A^−/− xenografts. Cells were inoculated subcutaneously into nude mice and tumors allowed to establish for 10 days. Mice were then randomized to treatment regimens of either VX-970 (60 mg/kg, 4× weekly by oral gavage) or vehicle. Mice were then treated for a subsequent 40 days. Tumor volume was monitored twice weekly. B. Relative tumor volume plot from (A) showing efficacy of VX-970 and selectivity for ARID1A^−/− xenografts* p=0.024, ANOVA. C. Schematic of tumor incidence experiment in mice with non-established HCT116 ARID1A^+/+ and ARID1A^−/− xenografts. Mice were inoculated with cells as before, randomized and then treated with VX-970. […] Tumor volume was monitored twice weekly and overall tumour incidence was assessed 40 days later. […] PARP-1, cleaved PARP-1 (85 kDa fragment) and tubulin were detected by western blot. […] Caspase3/7 activity was assessed using Caspase-Glo and total cellular viability was estimated using CellTitre-Glo. Luminescence ratios for Caspase-Glo (i.e. apoptotic cells) and CellTitre-Glo (ie viable cells) was determined for each dose and normalized to DMSO treated samples. *Student's t-test, p<0.05. […]
Short-term survival assays were performed in 384-well plates. […] Colonies were counted manually. […]

For the next experiment, the system named is TOV21G xenografts. Kind of experiment: In vivo efficacy, established TOV21G xenografts. Also noted: species or system mice. The conditions noted are these: 60 mg/kg, 4x weekly oral gavage, 28 days; p=0.014 ANOVA.
The subject of another experiment is HCC1143 cells. Kind of experiment: 384 well plate cell survival after ARID1A siRNA transfection. It counts as cell-based, human. The conditions noted are these: ARID1A siRNA vs control, five continuous days exposure. An excerpt:
FIG. 1. […] A. Structure of VE-821 and schematic describing workflow for parallel VE-821 chemosensitisation screens in MCF12A and HCC1143 cells. B. Scatter plots of VE-821 Drug Effect (DE) Z-scores from all 1280 siRNAs used in the in the chemosensitisation screens. The DE Z-score threshold of −2 (red line) was used for defining candidate synthetic lethal interactions is shown. C. Venn diagram of DE<−2 VE-821 sensitisation hits in MCF12A and HCC1143 cells. Numbers shown indicate number of sensitisation genes. Amongst the 30 genes with DE Z-scores <−2 in both cell lines, seven well-established tumour suppressor genes were identified. D. Bar charts illustrating DE Z-scores for control, non-targeting, siRNAs (siALLSTAR, siCON1, siCON2) and ARID1A siRNAs in the chemosensitisation screens. Values shown are median from triplicate screens and error bars represent SD. […]
A siRNA library was purchased from Dharmacon. […] RNAi screening conditions were optimised and raw CellTitre-Glo (Promega) luminescent viability readings were generated as previously described21. […]
Short-term survival assays were performed in 384-well plates. […] Drug was added 24 h after seeding and cells were continuously exposed to the drug for five days, after which cell viability was estimated using CellTitre-Glo luminescence (Promega). […] Colonies were counted manually. […]

The test system of experiment [2] is synovial sarcoma PDX SA13412. Kind of experiment: Synovial sarcoma patient-derived xenograft treatment. It counts as in vivo, mice. (In general: A xenograft is tissue or cells of one species grown in another, often human tumour cells in immunodeficient mice.)

Regarding `CNCc1ccc(-c2cc(-c3nc(-c4ccc(S(=O)(=O)C(C)C)cc4)cnc3N)on2)cc1` [VX-970, 5-[4-(Isopropylsulfonyl)phenyl]-3-(3-{4-[(methylamino)methyl]phenyl}-1,2-oxazol-5-yl)-2-pyrazinamine], the “sensitivity of TOV21G vs RMG1” value in experiment [1] is “more sensitive to both VE-821 and VX-970”. Moreover, in the experiment on TOV21G xenografts, the “growth of established TOV21G tumours vs vehicle” value is reported as “significantly inhibited the growth”. Further, in the experiment on HCC1143 cells, the “ATRi sensitivity caused by ARID1A siRNA” value is recorded as “caused sensitivity”. In addition, the “tumour growth in PDX SA13412” value in experiment [2] (established PDX, ANOVA p<0.0001) is given as “inhibition of tumour growth”. Also, in experiment [2] (log rank Mantel p=0.026), the “survival time of PDX-bearing mice” value is listed as “increase in survival time”.
